ChEMBL document CHEMBL2424581, “Optimization of phage heptapeptide library-screening process for developing inhibitors of the isocitrate lyase homologue from Mycobacterium tuberculosis” (Med Chem Res, 2013)

Assays:
[1] = target: T1, Isocitrate lyase (Mycobacterium tuberculosis, UniProt P9WKK7); assay: Inhibition of Mycobacterium tuberculosis recombinant isocitrate lyase expressed in Escherichia coli BL21 (DE3) using isocitrate as substrate after 10 mins by spectrometric analysis
T1 sequence (P9WKK7 whole entry): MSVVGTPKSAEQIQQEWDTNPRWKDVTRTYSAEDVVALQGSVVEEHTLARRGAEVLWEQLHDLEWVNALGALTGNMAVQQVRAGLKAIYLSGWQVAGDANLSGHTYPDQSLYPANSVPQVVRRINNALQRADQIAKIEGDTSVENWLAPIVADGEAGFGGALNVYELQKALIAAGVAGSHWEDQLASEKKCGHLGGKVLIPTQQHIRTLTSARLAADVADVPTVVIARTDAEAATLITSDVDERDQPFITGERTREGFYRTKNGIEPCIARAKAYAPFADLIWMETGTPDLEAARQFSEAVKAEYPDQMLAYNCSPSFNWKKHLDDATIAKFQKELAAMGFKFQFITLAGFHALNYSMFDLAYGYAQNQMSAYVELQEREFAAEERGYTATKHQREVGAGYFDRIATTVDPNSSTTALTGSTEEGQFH

[2] = target: T2, Isocitrate lyase (Mycobacterium tuberculosis) (UniProt P9WKK7); assay: Inhibition of Mycobacterium tuberculosis recombinant isocitrate lyase expressed in Escherichia coli BL21 (DE3) using isocitrate as substrate at 1 mg/mL by spectrometric analysis relative to control
T2 sequence (whole entry): T1 sequence (P9WKK7 whole entry)

Work on O=C(O)CC[N+](=O)[O-] yielded an IC50 [1] of 50.7 µM.
Compound H-HISHLML-OH has an IC50 [1] of 192 µM and an inhibition [2] of 51%.
In the case of H-HYSSHMR-OH [listing 1 of 2 here], the IC50 [1] is reported as 126 µM.
H-HYSSHMR-OH [listing 2 of 2 here] was tested, and the inhibition [2] was 72%.
H-LTLGPLL-OH was tested, and the IC50 [1] was 208 µM and the inhibition [2] was 55%.
H-LTQHLTA-OH gave an IC50 [1] of 214 µM and an inhibition [2] of 56%.
Work on H-LYALATM-OH yielded an IC50 [1] of 204 µM and an inhibition [2] of 52%.
H-NPPERSP-OH gave an IC50 [1] of 142 µM and an inhibition [2] of 73%.
Work on H-NSSSLAQ-OH yielded an IC50 [1] of 190 µM and an inhibition [2] of 62%.
H-QKASPGA-OH showed an IC50 [1] of 172 µM and an inhibition [2] of 73%.
H-SARVTSR-OH [listing 1 of 2 here] was tested, and the IC50 [1] was 166 µM.
In the case of H-SARVTSR-OH [listing 2 of 2 here], the inhibition [2] is reported as 65%.
Work on H-TELSLPS-OH yielded an IC50 [1] of 182 µM and an inhibition [2] of 61%.
Compound H-TMHLSPY-OH has an IC50 [1] of 156 µM and an inhibition [2] of 63%.
Work on H-VTSLKAT-OH yielded an IC50 [1] of 228 µM and an inhibition [2] of 51%.
